According to patent US20250122218A1, “MODULATORS OF CYSTIC FIBROSIS TRANSMEMBRANE CONDUCTANCE REGULATOR” (Vertex Pharmaceuticals Incorporated, priority 2022, published 2025):
Where two headings read alike, the source gives them in different places.

Experiments:
[1] = target: T1, CFTR in F508del/MF-HBE cells (Homo sapiens, UniProt P13569, DEL508-508); test: Ussing chamber assay of CFTR-mediated short-circuit currents (identification of potentiator compounds); assay type: cell-based; details: potentiator incubated 18-24 hours at 37° C. in combination with 10 μM corrector, in the presence of 20% human serum, CFTR-mediated ISC
T1 construct: human bronchial epithelial (HBE) cells derived from CF subjects heterozygous for F508del and a minimal function CFTR mutation; endogenous in cells; host or cells: primary human bronchial epithelial cells from CF subjects (F508del/MF-HBE)
Outline: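 F508del/MF-HBE cultures were preincubated 18-24 h at 37° C with potentiator plus 10 μM of a fixed corrector compound in 20% human serum; compounds were kept present during measurement. ISC was recorded under voltage clamp (0 mV, 37° C, amiloride apical) and taken as the 20 μM forskolin peak minus the current after inhibitor cocktail.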

T1 sequence (P13569 with tags, fused parts or gaps DEL508-508): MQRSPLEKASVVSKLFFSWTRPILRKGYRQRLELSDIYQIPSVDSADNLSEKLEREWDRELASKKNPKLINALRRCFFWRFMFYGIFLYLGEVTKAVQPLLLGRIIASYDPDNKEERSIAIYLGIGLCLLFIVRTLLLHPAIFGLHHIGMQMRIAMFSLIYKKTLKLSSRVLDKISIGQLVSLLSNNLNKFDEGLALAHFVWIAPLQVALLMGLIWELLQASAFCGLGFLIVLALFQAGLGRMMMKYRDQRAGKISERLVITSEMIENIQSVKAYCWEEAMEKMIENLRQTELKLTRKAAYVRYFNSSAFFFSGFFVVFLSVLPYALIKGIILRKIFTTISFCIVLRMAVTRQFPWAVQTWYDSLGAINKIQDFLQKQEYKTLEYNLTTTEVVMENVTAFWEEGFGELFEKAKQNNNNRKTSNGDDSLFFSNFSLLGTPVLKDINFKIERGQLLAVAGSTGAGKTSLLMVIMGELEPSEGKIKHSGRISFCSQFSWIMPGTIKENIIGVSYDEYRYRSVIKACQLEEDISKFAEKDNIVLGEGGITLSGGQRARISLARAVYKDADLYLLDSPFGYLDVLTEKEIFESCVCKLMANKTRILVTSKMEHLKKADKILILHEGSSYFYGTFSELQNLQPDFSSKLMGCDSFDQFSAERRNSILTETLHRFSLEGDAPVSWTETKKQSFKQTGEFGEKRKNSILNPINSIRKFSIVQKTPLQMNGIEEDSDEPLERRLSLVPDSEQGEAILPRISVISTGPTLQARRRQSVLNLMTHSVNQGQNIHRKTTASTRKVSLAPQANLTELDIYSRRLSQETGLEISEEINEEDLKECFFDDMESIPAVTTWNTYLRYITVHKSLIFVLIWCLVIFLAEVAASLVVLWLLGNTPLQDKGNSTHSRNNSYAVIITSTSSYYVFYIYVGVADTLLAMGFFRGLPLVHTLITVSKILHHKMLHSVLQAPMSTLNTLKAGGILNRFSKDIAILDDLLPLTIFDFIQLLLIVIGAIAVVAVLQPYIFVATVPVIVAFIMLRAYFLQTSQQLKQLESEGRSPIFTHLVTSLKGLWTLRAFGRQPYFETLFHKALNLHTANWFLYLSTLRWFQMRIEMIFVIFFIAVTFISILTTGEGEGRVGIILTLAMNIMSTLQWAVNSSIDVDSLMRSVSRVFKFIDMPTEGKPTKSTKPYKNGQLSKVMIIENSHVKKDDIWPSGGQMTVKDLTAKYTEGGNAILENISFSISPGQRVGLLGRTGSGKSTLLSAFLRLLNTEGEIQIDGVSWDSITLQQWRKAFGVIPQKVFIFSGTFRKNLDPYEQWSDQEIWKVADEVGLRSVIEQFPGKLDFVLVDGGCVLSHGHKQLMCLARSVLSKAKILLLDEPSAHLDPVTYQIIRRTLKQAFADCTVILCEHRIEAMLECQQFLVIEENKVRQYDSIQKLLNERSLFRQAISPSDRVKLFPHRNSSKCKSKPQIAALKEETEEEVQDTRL

Compound | EC50 [1] [nM] | other results
CC(C)(C)OC(=O)Nc1cc(C(F)(F)F)c2nc1-c1nnc(o1)C(O)(C(F)(F)F)c1cccc(c1)C=CCCC2C#N (mixture of isomers) | – | ring closure, isolated yield (from C=CCCC(C#N)c1nc(-c2nnc(C(O)(c3cccc(I)c3)C(F)(F)F)o2)c(NC(=O)OC(C)(C)C)cc1C(F)(F)F, cc_pd bond, 15-membered ring, Pd(OAc)2/P(o-tol)3/Et3N, MeCN, 9.4 mM, 80.0 °C): 93%
COC1CCC=Cc2ccc(F)c(c2)C(O)(C(F)(F)F)C2=NN=C(O2)c2nc1c(C(F)(F)F)cc2NC(=O)OC(C)(C)C (mixture of isomers) | – | ring closure, isolated yield (from C=CCCC(OC)c1nc(-c2nnc(C(O)(c3cc(I)ccc3F)C(F)(F)F)o2)c(NC(=O)OC(C)(C)C)cc1C(F)(F)F, cc_pd bond, 15-membered ring, Pd(OAc)2/P(o-tol)3/Et3N, MeCN, 6.3 mM, 80.0 °C, 16.0 h): 62%
CN1CCCCC(OCc2ccccc2)(C(F)(F)F)C2=NN=C(O2)c2nc(c(C(F)(F)F)cc2N)CC1=O (stereo not shown) | – | ring closure, isolated yield (from CNCCCCC(OCc1ccccc1)(c1nnc(-c2nc(CC(=O)O)c(C(F)(F)F)cc2N)o1)C(F)(F)F, amide bond, 14-membered ring, T3P/DIEA, EtOAc/NMP, 35.7 mM, 5.0 h): 45%
CC(C)N1CCCCC(OCc2ccccc2)(C(F)(F)F)C2=NN=C(O2)c2nc(c(C(F)(F)F)cc2N)CC1=O (stereo not shown) | – | ring closure, isolated yield (from CC(C)NCCCCC(OCc1ccccc1)(c1nnc(-c2nc(CC(=O)O)c(C(F)(F)F)cc2N)o1)C(F)(F)F, amide bond, 14-membered ring, T3P/DIEA, EtOAc/NMP, 33.9 mM, 2.0 h): 23%
CC(C)(C)OC(=O)Nc1cc(C(F)(F)F)c2nc1-c1nnc(o1)C(OCc1ccccc1)(C(F)(F)F)CCCCN(C1CC(F)(F)C1)C2=O (stereo not shown) | – | ring closure, isolated yield (from CC(C)(C)OC(=O)Nc1cc(C(F)(F)F)c(C(=O)O)nc1-c1nnc(C(CCCCNC2CC(F)(F)C2)(OCc2ccccc2)C(F)(F)F)o1, amide bond, 13-membered ring, HATU/DIEA, DMF, 2.67 mM, 1.0 h): 33%
CC(C)(C)OC(=O)Nc1cc(C(F)(F)F)c2nc1-c1nnc(o1)C(OCc1ccccc1)(C(F)(F)F)CCC=CCCC2 (mixture of isomers) | – | ring closure, isolated yield (from C=CCCCc1nc(-c2nnc(C(CCC=C)(OCc3ccccc3)C(F)(F)F)o2)c(NC(=O)OC(C)(C)C)cc1C(F)(F)F, rcm bond, 14-membered ring, Grubbs II (22 mol%), toluene, 2.63 mM, 100.0 °C): 39%
Nc1cc(C(F)(F)F)c2nc1-c1nnc(o1)C(OCc1ccccc1)(C(F)(F)F)CCCCN(Cc1ccccc1)C(=O)C2 (stereo not shown) | – | ring closure, isolated yield (from Nc1cc(C(F)(F)F)c(CC(=O)O)nc1-c1nnc(C(CCCCNCc2ccccc2)(OCc2ccccc2)C(F)(F)F)o1, amide bond, 14-membered ring, T3P/DIEA, EtOAc/NMP, 31.5 mM, 2.0 h): 66%
CC(C)N1CCCCC(O)(C(F)(F)F)C2=NN=C(O2)c2nc(c(C(F)(F)F)cc2N)CC1=O (stereo not shown) [Compound 52, 17-amino-6-hydroxy-11-isopropyl-6,15-bis(trifluoromethyl)-19-oxa-3,4,11,18-tetrazatricyclo[12.3.1.12,5]nonadeca-1(18),2,4,14,16-pentaen-12-one] | > 1000 | –
CC(C)c1cccc(CN2CCCCC[C@](O)(C(F)(F)F)C3=NN=C(O3)c3nc(c(C(F)(F)F)cc3N)C2=O)c1 [Compound 139, (6R)-17-amino-6-hydroxy-12-[(3-isopropylphenyl)methyl]-6,15-bis (trifluoromethyl)-19-oxa-3,4,12,18-tetrazatricyclo [12.3.1.12,5] nonadeca-1(18),2,4,14,1 6-pentaen-13-one] | < 500 | –
CC(C)(C)c1ccc(CN2CCCCC[C@](O)(C(F)(F)F)C3=NN=C(O3)c3nc(c(C(F)(F)F)cc3N)C2=O)nc1 [Compound 120, (6R)-17-Amino-12-[(5-tert-butyl-2-pyridyl)methyl]-6-hydroxy-6,15-bis (trifluoromethyl)-19-oxa-3,4,12,18-tetrazatricyclo [12.3.1.12,5] nonadeca-1(18),2,4,14,1 6-pentaen-13-one] | < 500 | –
CC(C)(C)C1(N2CCCCC[C@](O)(C(F)(F)F)C3=NN=C(O3)c3nc(c(C(F)(F)F)cc3N)C2=O)CC1 [Compound 226, (6R)-17-amino-12-(1-tert-butylcyclopropyl)-6-hydroxy-6,15-bis(trifluoromethyl)-19-oxa-3,4,12,18-tetrazatricyclo [12.3.1.12,5] nonadeca-1(18),2,4,14,16-pentaen-13-one] | < 500 | –
Cn1ccc(CN2CCCCC[C@](O)(C(F)(F)F)C3=NN=C(O3)c3nc(c(C(F)(F)F)cc3N)C2=O)n1 [Compound 117, (6R)-17-Amino-6-hydroxy-12-[(1-methylpyrazol-3-yl)methyl]-6,15-bis (trifluorom ethyl)-19-oxa-3,4,12,18-tetrazatricyclo [12.3.1.12,5] nonadeca-1(18),2,4,14,1 6-pentaen-13-one] | > 1000 | –
CN1CCCCCC(O)(C(F)(F)F)C2=NN=C(O2)c2nc(c(C(F)(F)F)cc2N)C1=O (single isomer, unassigned) [Compound 72, 17-Amino-6-hydroxy-12-methyl-6,15-bis(trifluoromethyl)-19-oxa-3,4,12,18-tetrazatricyclo[12.3.1.12,5]nonadeca-1(18),2,4,14,16-pentaen-13-one] | < 500 | –

More lines, main results first:

EC50 [1] [nM] | Compound | other results
< 500 | Nc1cc(C(F)(F)F)c2nc1-c1nnc(o1)C(O)(C(F)(F)F)CCCCCCC1=NN=C2O1 (single isomer, unassigned) [Compound 32, 20-amino-6,18-bis(trifluoromethyl)-22,23-dioxa-3,4,14,15,21-pentaazatetracyclo[15.3.1.12,5.113,16]tricosa-1(21),2,4,13,15,17,19-heptaen-6-ol] | –
< 500 | Nc1cc(C(F)(F)F)c2nc1-c1nnc(o1)C(O)(C(F)(F)F)CCC(=O)CCCC2=O (single isomer, unassigned) [Compound 34, 17-amino-6-hydroxy-6,15-bis(trifluoromethyl)-19-oxa-3,4,18-triazatricyclo[12.3.1.12,5]nonadeca-1(18),2,4,14,16-pentaene-9,13-dione] | –
< 500 | Nc1cc(C(F)(F)F)c2nc1-c1nnc(o1)[C@@](O)(C(F)(F)F)CCCCCN(C1CCCCC1)C2=O [Compound 81, (6R)-17-Amino-12-cyclohexyl-6-hydroxy-6,15-bis (trifluoromethyl)-19-oxa-3,4,12,18-tetrazatricyclo [12.3.1.12,5] nonadeca-1(18),2,4,14,1 6-pentaen-13-one] | –
< 500 | Nc1cc(C(F)(F)F)c2nc1-c1nnc(o1)[C@@](O)(C(F)(F)F)CCCCCN(Cc1ccc(Cl)cc1)C2=O [Compound 144, (6R)-17-amino-12-[(4-chlorophenyl)methyl]-6-hydroxy-6,15-bis (trifluoromethyl)-19-oxa-3,4,12,18-tetrazatricyclo [12.3.1.12,5] nonadeca-1(18),2,4,14,1 6-pentaen-13-one] | –
> 1000 | Nc1cc(C(F)(F)F)c2nc1-c1nnc(o1)C(O)(C(F)(F)F)CCCC(=O)CCC2=O (single isomer, unassigned) [Compound 36, 17-amino-6-hydroxy-6,15-bis(trifluoromethyl)-19-oxa-3,4,18-triazatricyclo[12.3.1.12,5]nonadeca-1(18),2,4,14,16-pentaene-10,13-dione] | –
> 1000 | Nc1cc(C(F)(F)F)c2nc1-c1nnc(o1)C(O)(C(F)(F)F)CCCCCN(CC(F)(F)F)C2=O (single isomer, unassigned) [Compound 207, 17-amino-6-hydroxy-12-(2,2,2-trifluoroethyl)-6,15-bis(trifluoromethyl)-19-oxa-3,4,12,18-tetrazatricyclo [12.3.1.12,5] nonadeca-1(18),2,4,14,16-pentaen-13-one] | –
